Structures are written as SMILES.

The assay concerns the target T1, full-length human PKCι (Homo sapiens, UniProt P41743).
T1 construct: Recombinant, full-length human PKCι expressed in Sf21 insect cells is also commercially available; purchased; host or cells: Sf21 insect cells
T1 sequence (P41743 1-596): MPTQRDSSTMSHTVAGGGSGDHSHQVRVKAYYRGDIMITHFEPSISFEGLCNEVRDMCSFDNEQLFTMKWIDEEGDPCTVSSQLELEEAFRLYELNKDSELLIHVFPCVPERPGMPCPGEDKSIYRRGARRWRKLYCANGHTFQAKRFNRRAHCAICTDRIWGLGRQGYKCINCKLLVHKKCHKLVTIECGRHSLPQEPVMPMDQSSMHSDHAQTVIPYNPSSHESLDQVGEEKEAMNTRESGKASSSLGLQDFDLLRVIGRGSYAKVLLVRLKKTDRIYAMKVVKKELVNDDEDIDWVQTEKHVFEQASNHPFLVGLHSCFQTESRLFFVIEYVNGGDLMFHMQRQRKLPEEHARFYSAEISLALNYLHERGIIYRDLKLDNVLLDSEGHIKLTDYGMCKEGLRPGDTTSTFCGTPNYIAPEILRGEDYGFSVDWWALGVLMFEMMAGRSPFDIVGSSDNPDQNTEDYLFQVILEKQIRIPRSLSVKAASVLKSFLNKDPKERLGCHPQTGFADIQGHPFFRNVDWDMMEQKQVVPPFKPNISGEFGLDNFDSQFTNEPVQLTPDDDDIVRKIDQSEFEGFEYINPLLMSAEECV
The assay is described as follows: PKCι IC50 IMAP assay, full-length PKCι at 150 μM ATP. The conditions noted are these: read-out: IC50 in IMAP assay against full length PKCi at 150 μM ATP. The assay is classed as biochemical. The method in brief: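 Full-length human PKCι from Sf21 cells, typically 15 pM, with 100 nM 5FAM-PKCε pseudosubstrate peptide and 150 μM ATP (5× apparent KM), 60 min at room temperature, 4% DMSO. IMAP fluorescence polarisation read-out; inhibition normalised to no-compound and no-enzyme controls, IC50 from curve fit.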
Regarding `CC(C)NC(=O)C1CCN(c2nc(-c3ccnc(NC4CCCCC4)c3)nc3cncc(C4CC4)c23)CC1` [Example 674, 1-[2-(2-Cyclohexylamino-pyridin-4-yl)-5-cyclopropyl-pyrido[3,4-d]pyrimidin-4-yl]-piperidine-4-carboxylicacid isopropylamide], the IC50 (usually the midpoint of a concentration-inhibition curve) was 1000 to 10000 nM. To `CC(C)NC(=O)C1CCN(c2nc(-c3ccnc(NC4CCCC4)c3)nc3cncc(C4CC4)c23)CC1` [Example 679, 1-[2-(2-Cyclopentylamino-pyridin-4-yl)-5-cyclopropyl-pyrido[3,4-d]pyrimidin-4-yl]-piperidine-4-carboxylicacid isopropylamide] belongs 1000 to 10000 nM; to `Fc1cc(F)c(Nc2cc(-c3nc(N4CCNCC4)c4c(C5CC5)cncc4n3)ccn2)nc1F` [Example 680], < 100 nM; to `CN1CCN(c2cccc(Nc3cc(-c4nc(N5CCNCC5)c5c(C6CC6)cncc5n4)ccn3)c2)CC1` [Example 681, [4-(5-Cyclopropyl-4-piperazin-1-yl-pyrido[3,4-d]pyrimidin-2-yl)-pyridin-2-yl]-[3-(4-methyl-piperazin-1-yl)-phenyl]-amine], < 100 nM. In the case of `Fc1cc(Nc2cc(-c3nc(N4CCNCC4)c4c(C5CC5)cncc4n3)ccn2)c(F)c(F)n1` [Example 682, [4-(5-Cyclopropyl-4-piperazin-1-yl-pyrido[3,4-d]pyrimidin-2-yl)-pyridin-2-yl]-(2,3,6-trifluoro-pyridin-4-yl)-amine], the IC50 lay in the range of 100 to 1000 nM.

With `c1ccc(-c2ccc(Nc3cc(-c4nc(N5CCNCC5)c5c(C6CC6)cncc5n4)ccn3)cc2)cc1` [Example 683, Biphenyl-4-yl-[4-(5-cyclopropyl-4-piperazin-1-yl-pyrido[3,4-d]pyrimidin-2-yl)-pyridin-2-yl]-amine], the IC50 was 1000 to 10000 nM.

As for `O=C(O)c1ccc(Nc2cc(-c3nc(N4CCNCC4)c4c(C5CC5)cncc4n3)ccn2)cc1` [Example 684, 4-[4-(5-Cyclopropyl-4-piperazin-1-yl-pyrido[3,4-d]pyrimidin-2-yl)-pyridin-2-ylamino]-benzoic acid], the IC50 was 100 to 1000 nM. On to `O=C(NCCO)C1CCN(c2nc(-c3ccnc(Nc4c(F)cccc4F)c3)nc3cncc(C4CC4)c23)CC1` [Example 685, 1-{5-Cyclopropyl-2-[2-(2,6-difluoro-phenylamino)-pyridin-4-yl]-pyrido[3,4-d]pyrimidin-4-yl}-piperidine-4-carboxylic acid (2-hydroxy-ethyl)-amide], for which the IC50 fell in the range of 100 to 1000 nM. To `CN(C)C(=O)C1CCN(c2nc(-c3ccnc(Nc4c(F)cccc4F)c3)nc3cncc(C4CC4)c23)CC1` [Example 686, 1-{5-Cyclopropyl-2-[2-(2,6-difluoro-phenylamino)-pyridin-4-yl]-pyrido[3,4-d]pyrimidin-4-yl}-piperidine-4-carboxylic acid dimethylamide] belongs 100 to 1000 nM. Take `CN1CCN(c2cccc(Nc3cc(-c4nc(N5CCN(C(N)=O)CC5)c5c(C6CC6)cncc5n4)ccn3)c2)CC1` [Example 687, 4-(5-Cyclopropyl-2-{2-[3-(4-methyl-piperazin-1-yl)-phenylamino]-pyridin-4-yl}-pyrido[3,4-d]pyrimidin-4-yl)-piperazine-1-carboxylic acid amide]: the IC50 is 100 to 1000 nM. Take `CN1CCN(c2cccc(Nc3cc(-c4nc(N5CCC(O)CC5)c5c(C6CC6)cncc5n4)ccn3)c2)CC1` [Example 688, 1-(5-Cyclopropyl-2-{2-[3-(4-methyl-piperazin-1-yl)-phenylamno]-pyridin-4-yl}-pyrido[3,4-d]pyrimidin-4-yl)-piperidin-4-ol]: the IC50 was < 100 nM. To `Fc1cc(-c2nc(N3CCNCC3)c3c(C4CC4)cncc3n2)ccn1` [Example 689, 5-Cyclopropyl-2-(2-fluoro-pyridin-4-yl)-4-piperazin-1-yl-pyrido[3,4-d]pyrimidine] belongs < 100 nM.

On to `NC1CCN(c2nc(-c3ccnc(Nc4c(F)cccc4F)c3)nc3cncc(C4CC4)c23)CC1` [Example 690, {4-[4-(4-Amino-piperidin-1-yl)-5-cyclopropyl-pyrido[3,4-d]pyrimidin-2-yl]-pyridin-2-yl}-(2,6-difluoro-phenyl)-amine], for which the IC50 was < 100 nM.
